# Experimental data taken from patent US9809532B2, “Uses of histone acetyltransferase activators” (THE TRUSTEES OF COLUMBIA UNIVERSITY IN THE CITY OF NEW YORK, priority 2011, dated 2017).
# Molecular target: T1, Sirtuin 2 (Homo sapiens, UniProt Q8IXJ6)
# T1 sequence (Q8IXJ6 1-389): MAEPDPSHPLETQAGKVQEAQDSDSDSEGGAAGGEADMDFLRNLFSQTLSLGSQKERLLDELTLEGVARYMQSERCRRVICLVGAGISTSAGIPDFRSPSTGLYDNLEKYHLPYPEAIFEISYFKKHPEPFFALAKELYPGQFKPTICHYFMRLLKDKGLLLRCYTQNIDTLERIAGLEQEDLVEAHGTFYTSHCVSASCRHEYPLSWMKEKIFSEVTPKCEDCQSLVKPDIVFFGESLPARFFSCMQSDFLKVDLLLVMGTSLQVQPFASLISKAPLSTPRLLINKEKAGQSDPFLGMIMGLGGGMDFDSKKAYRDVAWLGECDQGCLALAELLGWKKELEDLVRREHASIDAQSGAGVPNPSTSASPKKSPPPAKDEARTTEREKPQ
# Test: Sirtuin 2 activity assay (fluorescence)
# Settings: Compound 1 Log [nM] 4.0; Repeat1/Repeat2
structure (smiles),measurement,value
CCOc1cccc(OCCN(C)C)c1C(=O)Nc1ccc(Cl)c(C(F)(F)F)c1 [Compound 1],% Activity (Sirtuin 2),97.71%
